# Assay results published in patent publication US3933805A, “S(IV)-benzo-1,2,4-thiadiazine compounds and process for their preparation” (Biersdorf, Akteingesellschaft, priority 1973, dated 1976).
# Experiments:
# [1] = system: Minimum Electroshock Threshold; test: Minimum Electroshock Threshold (increase in net); type: in vivo; settings: Mus musculus, po; mice
# Description: (§1) Central depressing effects in mice (ED50 in mg/kg p.o.)
# (§2) Example spontaneous Increase in net^(3)
# (3) Minimum Electroshock Threshold, test arrangement according to Brown,
# Schiffmann, Swinyard and Goodman; J.Pharmacol. Exptl. Ther. 107, 273
# spontaneous mobility = test: Decrease of spontaneous mobility; type: in vivo; settings: Mus musculus, po; mice
# Description: as §1, §2
# (1) Method described in R.A. Turner, Screening Methods in Pharmacology, […]
# pentobarbital sleep = test: Prolongation of pentobarbital sleep; type: in vivo; settings: Mus musculus, po, mice, p.o., read-out: ED50, increase in sleeping (prolongation of pentobarbital sleep)
# Description: as §1, §2
# (2) Prolongation of pentobarbital sleep, R.A. Turner, Screening Methods i
# Pharmacology, N.Y. 1965, p. 90.
# [2] = system: guinea pig small intestine; test: Spasmolytic effect on guinea pig small intestine in vitro against Acetylcholine; type: cell-based; settings: Cavia porcellus, Acetylcholine 0.1 γ/ml, read-out: ED50, spasmolytic effect against Acetylcholine
# Description: (§3) Spasmolytic effect on guinea pig small intestine (1)
# (§4) (1) R. Magnus, Pflugers Arch. ges. Physiol. 102, 123 (1904)
# [3] = system: guinea pig small intestine; test: Spasmolytic effect on guinea pig small intestine in vitro against Barium chloride; type: cell-based; settings: Cavia porcellus, Barium chloride 200 γ/ml, read-out: ED50, spasmolytic effect against Barium chloride
# Description: as §3, §4
# [4] = system: guinea pig small intestine; test: Spasmolytic effect on guinea pig small intestine in vitro against Histamine; type: cell-based; settings: Cavia porcellus, Histamine 0.1 γ/ml, read-out: ED50, spasmolytic effect against Histamine
# Description: as §3, §4
smiles,measurement,setting,value
"CCCN(CCC)CC1=Nc2ccc(Cl)cc2S(=O)(c2ccccc2)=N1 (stereo not drawn) [Example 1, 7-Chloro-3-di-(n-propyl)aminomethyl-1-phenyl-benzo-1,2,4-thiadiazine-1 oxide]",ED50,[1],38 mg/kg
same,ED50,spontaneous mobility,98 mg/kg
same,ED50,pentobarbital sleep,22 mg/kg
"CCCN(CCC)CC1=Nc2ccccc2S(=O)(c2ccc(N)cc2)=N1 (stereo not drawn) [Example 2, 3-Di-(n-propyl)-aminomethyl-1-(4'-aminophenyl)-benzo-1,2,4-thiadiazine-1-oxide]",ED50,spontaneous mobility,> 250 mg/kg
same,ED50,pentobarbital sleep,8 mg/kg
O=S1(c2ccccc2)=NC(CN2CCCCC2)=Nc2ccc(Cl)cc21 (stereo not drawn) [Example 3],ED50,[1],34 mg/kg
same,ED50,spontaneous mobility,84 mg/kg
same,IC50,[2],0.9 µg/mL
same,IC50,[3],1.7 µg/mL
same,ED50,pentobarbital sleep,34 mg/kg
CCN(CC)CC1=Nc2ccc(Cl)cc2S(=O)(c2ccccc2)=N1 (stereo not drawn) [Example 4],ED50,[1],28 mg/kg
same,ED50,spontaneous mobility,78 mg/kg
same,ED50,pentobarbital sleep,46 mg/kg
O=S1(c2ccccc2)=NC(CN2CCOCC2)=Nc2ccc(Cl)cc21 (stereo not drawn) [Example 5],ED50,[1],92 mg/kg
same,ED50,spontaneous mobility,> 250 mg/kg
same,ED50,pentobarbital sleep,46 mg/kg
O=S1(c2ccccc2)=NC(CN2CCCC2)=Nc2ccc(Cl)cc21 (stereo not drawn) [Example 6],ED50,[1],68 mg/kg
same,ED50,spontaneous mobility,70 mg/kg
same,ED50,pentobarbital sleep,38 mg/kg
O=S1(c2ccccc2)=NC(CNCCO)=Nc2ccc(Cl)cc21 (stereo not drawn) [Example 7],ED50,[1],126 mg/kg
same,ED50,spontaneous mobility,23 mg/kg
same,ED50,pentobarbital sleep,15 mg/kg
CN(C)CC1=Nc2ccc(Cl)cc2S(=O)(c2ccccc2)=N1 (stereo not drawn) [Example 8],ED50,[1],46 mg/kg
same,ED50,spontaneous mobility,96 mg/kg
same,ED50,pentobarbital sleep,16 mg/kg
COCCNCC1=Nc2ccc(Cl)cc2S(=O)(c2ccccc2)=N1 (stereo not drawn) [Example 9],ED50,[1],32 mg/kg
same,ED50,spontaneous mobility,> 250 mg/kg
same,ED50,pentobarbital sleep,58 mg/kg
CCNCC1=Nc2ccc(Cl)cc2S(=O)(c2ccccc2)=N1 (stereo not drawn) [Example 13],ED50,[1],42 mg/kg
same,ED50,spontaneous mobility,240 mg/kg
same,ED50,pentobarbital sleep,25 mg/kg
COCCN(C)CC1=Nc2ccc(Cl)cc2S(=O)(c2ccccc2)=N1 (stereo not drawn) [Example 14],ED50,[1],46 mg/kg
same,ED50,spontaneous mobility,> 250 mg/kg
same,ED50,pentobarbital sleep,28 mg/kg
CCCN(CCC)CC1=Nc2cc(C)ccc2S(=O)(c2ccccc2)=N1 (stereo not drawn) [Example 15],IC50,[4],0.96 µg/mL
same,ED50,[1],> 500 mg/kg
same,ED50,spontaneous mobility,76 mg/kg
same,IC50,[2],2.7 µg/mL
same,IC50,[3],2.2 µg/mL
same,ED50,pentobarbital sleep,8.5 mg/kg
CCCN(CCC)CC1=Nc2ccccc2S(=O)(c2ccccc2)=N1 (stereo not drawn) [Example 18],ED50,[1],134 mg/kg
same,ED50,spontaneous mobility,186 mg/kg
same,IC50,[2],4 µg/mL
same,IC50,[3],1.2 µg/mL
same,ED50,pentobarbital sleep,3.1 mg/kg
O=S1(c2ccccc2)=NC(CNCCO)=Nc2ccccc21 (stereo not drawn) [Example 19],ED50,[1],> 500 mg/kg
same,ED50,spontaneous mobility,> 250 mg/kg
same,ED50,pentobarbital sleep,2 mg/kg
CCCN(CCC)CC1=Nc2ccccc2S(=O)(c2ccc(Cl)cc2)=N1 (stereo not drawn) [Example 20],ED50,[1],> 250 mg/kg
same,ED50,spontaneous mobility,31 mg/kg
same,IC50,[2],2.6 µg/mL
same,ED50,pentobarbital sleep,2 mg/kg
O=S1(c2ccc(Cl)cc2)=NC(CNCCO)=Nc2ccccc21 (stereo not drawn) [Example 21],ED50,spontaneous mobility,46 mg/kg
same,ED50,pentobarbital sleep,9 mg/kg
CCCN(CCC)CC1=Nc2ccc(Cl)cc2S(=O)(c2ccc(Cl)cc2)=N1 (stereo not drawn) [Example 22],ED50,spontaneous mobility,28 mg/kg
same,IC50,[2],2.2 µg/mL
same,IC50,[3],0.72 µg/mL
same,ED50,pentobarbital sleep,16 mg/kg
CCCN(CCC)CC1=Nc2ccc(Cl)cc2S(=O)(c2cccc(C)c2)=N1 (stereo not drawn) [Example 23],IC50,[4],0.08 µg/mL
same,IC50,[2],1.1 µg/mL
same,IC50,[3],0.9 µg/mL
CCCN(CCC)CC1=Nc2cccc(Cl)c2S(=O)(c2ccc(Cl)cc2)=N1 (stereo not drawn) [Example 24],IC50,[4],0.04 µg/mL
same,ED50,[1],115 mg/kg
same,ED50,spontaneous mobility,16 mg/kg
same,IC50,[2],2.2 µg/mL
same,IC50,[3],0.72 µg/mL
same,ED50,pentobarbital sleep,20 mg/kg
CCCN(CCC)CC1=Nc2ccc(C)cc2S(=O)(c2ccc(Cl)cc2)=N1 (stereo not drawn) [Example 25],ED50,[1],21 mg/kg
same,ED50,spontaneous mobility,31 mg/kg
same,IC50,[2],0.69 µg/mL
same,IC50,[3],0.69 µg/mL
same,ED50,pentobarbital sleep,> 250 mg/kg
